Laboratory results as given in paper PMC9673917 (ACS Infectious Diseases, 2022).

Tests used:
ACE2/RBD = settings: read-out: IC50 as ACE2/RBD binding inhibitor, AlphaLISA; ref 16 (Hanson et al.); cited from earlier work
RBD-Fc/ACE2-Strep = RBD-Fc/ACE2-Strep (Severe acute respiratory syndrome coronavirus 2, UniProt P0DTC2); assay: biochemical; format: binding, SARS-CoV-2 S protein; human ACE2
[1] = tested on: Calu-3 and HEK293-ACE2 cells; settings: Calu-3 and HEK293-ACE2 cell lines
ACE2/RBD interaction [2] = settings: 150 μM; RBD residues 319–541; ref 11 (Ao et al.); cited from earlier work
ACE2/RBD interaction [3] = settings: up to 100 μM; cell-free ELISA-type assays; RBD residues 319–541; ref 14 (Bojadzic et al.); cited from earlier work
spike protein = settings: Calu-3 cell line; cited from earlier work

Compound	cytotoxicity over active concentration ranges [1]	neutralization efficacy (spike protein)	other results
O=C(O[C@@H]1O[C@@H]2COC(=O)c3cc(O)c(O)c(O)c3-c3c(cc(O)c(O)c3O)C(=O)O[C@H]([C@H]1O)[C@@H]2O)c1cc(O)c(O)c(O)c1 [corilagin]			IC50 (ACE2/RBD): 5.5 µM
CCCCCCCC/C=C\CCCCCCCC(=O)O [oleic acid]	low to moderate cytotoxicity		IC50 (RBD-Fc/ACE2-Strep): 35.3 µM
Cc1ccc(C(=O)Nc2ccc(S(=O)(=O)O)c3cc(S(=O)(=O)O)cc(S(=O)(=O)O)c23)cc1NC(=O)c1cccc(NC(=O)Nc2cccc(C(=O)Nc3cc(C(=O)Nc4ccc(S(=O)(=O)O)c5cc(S(=O)(=O)O)cc(S(=O)(=O)O)c45)ccc3C)c2)c1 [suramin]	low to moderate cytotoxicity		inhibition of ACE2/RBD interaction (ACE2/RBD interaction [2]): around 50%; inhibition of the ACE2/RBD interaction (ACE2/RBD interaction [3]): did not inhibit
REGN10933: monoclonal antibody that targets the spike protein		potent neutralization efficacy	
REGN10987: monoclonal antibody that targets the spike protein		potent neutralization efficacy	
